The values below come from PubChem BioAssay AID248 (DTP/NCI, 2004).

The assay concerns L1210 leukemia ip in BDF1 mice, survival T/C. Briefly: NCI In Vivo Anticancer Drug Screen. Data for tumor model L1210 Leukemia (intraperitoneal) in B6D2F1 (BDF1) mice. Conditions: endpoint: mean survival time, higher = longer survival. In a few lines: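 Transplanted-tumor mice were given test agent; controls received vehicle only. Survival readings from the two groups were divided (treated over control).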

[1] abbreviates: dose: 100.0 mg/kg/injection, schedule: Q01DX009 (ip), vehicle: Klucel (hydroxypropylcellulose) (HPC).
Setting [2] is: dose: 100.0 mg/kg/injection, schedule: Q04DX003 (ip), vehicle: Klucel (hydroxypropylcellulose) (HPC).
The mark [3] stands for this setting: dose: 200.0 mg/kg/injection, schedule: Q01DX009 (ip), vehicle: Klucel (hydroxypropylcellulose) (HPC).
Setting [4] is: dose: 200.0 mg/kg/injection, schedule: Q04DX003 (ip), vehicle: Klucel (hydroxypropylcellulose) (HPC).
[5] abbreviates: dose: 400.0 mg/kg/injection, schedule: Q01DX009 (ip), vehicle: Klucel (hydroxypropylcellulose) (HPC).
Where [6] appears, read: dose: 400.0 mg/kg/injection, schedule: Q04DX003 (ip), vehicle: Klucel (hydroxypropylcellulose) (HPC).
Where [7] appears, read: dose: 100.0 mg/kg/injection, schedule: Q04DX003 (ip), vehicle: saline.
Where [8] appears, read: dose: 200.0 mg/kg/injection, schedule: Q04DX003 (ip), vehicle: saline.
Setting [9] is: dose: 400.0 mg/kg/injection, schedule: Q04DX003 (ip), vehicle: saline.
The mark [10] stands for this setting: dose: 25.0 mg/kg/injection, schedule: Q04DX003 (ip), vehicle: Klucel (hydroxypropylcellulose) (HPC).
Where [11] appears, read: dose: 50.0 mg/kg/injection, schedule: Q01DX009 (ip), vehicle: Klucel (hydroxypropylcellulose) (HPC).
Setting [12] is: dose: 50.0 mg/kg/injection, schedule: Q04DX003 (ip), vehicle: Klucel (hydroxypropylcellulose) (HPC).

The structures appear in SMILES notation. “And” between values parts separate entries of the source, which are not always exact repeats. Equal entries are not always repeated. Toxic doses and inconclusive results are not listed.

Consider `CCC1CC2CC(c3cc4c(cc3OC)N(C)C3C(O)(C(=O)OC)C(OC(C)=O)C5(CC)C=CCN6CCC43C65)c3[nH]c4ccccc4c3CCN(C1)C2` (stereo not drawn), for which the T/C reads like this: (dose: 0.25 mg/kg/injection, schedule: Q01DX009 (ip), vehicle: Klucel (hydroxypropylcellulose) (HPC)) 100 % of control; (dose: 0.5 mg/kg/injection, schedule: Q01DX009 (ip), vehicle: Klucel (hydroxypropylcellulose) (HPC)) 105 % of control; (dose: 1.0 mg/kg/injection, schedule: Q01DX009 (ip), vehicle: Klucel (hydroxypropylcellulose) (HPC)) 101 % of control; (dose: 2.0 mg/kg/injection, schedule: Q01DX009 (ip), vehicle: Klucel (hydroxypropylcellulose) (HPC)) 97 % of control; (dose: 4.0 mg/kg/injection, schedule: Q01DX009 (ip), vehicle: Klucel (hydroxypropylcellulose) (HPC)) 110 % of control; (dose: 8.0 mg/kg/injection, schedule: Q01DX009 (ip), vehicle: Klucel (hydroxypropylcellulose) (HPC)) 103 % of control.

As to `CC1(C)C[n+]2noc([O-])c2C(C)(C)C1`, the T/C reads like this: (dose: 0.19 mg/kg/injection, schedule: Q04DX003 (ip), vehicle: alcohol) 104 % of control; (dose: 0.39 mg/kg/injection, schedule: Q01DX009 (ip), vehicle: alcohol) 100 % of control; (dose: 0.39 mg/kg/injection, schedule: Q04DX003 (ip), vehicle: alcohol) 96 % of control; (dose: 0.78 mg/kg/injection, schedule: Q01DX009 (ip), vehicle: alcohol) 105 % of control; (dose: 0.78 mg/kg/injection, schedule: Q04DX003 (ip), vehicle: alcohol) 113 % of control; (dose: 1.56 mg/kg/injection, schedule: Q01DX009 (ip), vehicle: alcohol) 105 % of control. In addition, the T/C (dose: 1.56 mg/kg/injection, schedule: Q04DX003 (ip), vehicle: alcohol) is 96 % of control.

As to `COc1ccc(C=O)c(Br)c1O`, the T/C by setting is: under setting [1], 103 % of control; under setting [2], 104 % of control; under setting [3], 97 % of control; under setting [4], 103 % of control; under setting [5], 97 % of control; under setting [6], 101 % of control.

For the compound `O=C1CC(Nc2ccc(F)cc2)C(=O)N1c1ccc(F)cc1` (stereo not drawn), the T/C (dose: 75.0 mg/kg/injection, schedule: Q04DX003 (ip), vehicle: other) was 90 % of control; the T/C (dose: 150.0 mg/kg/injection, schedule: Q04DX003 (ip), vehicle: other) is 92 % of control; the T/C (dose: 300.0 mg/kg/injection, schedule: Q04DX003 (ip), vehicle: other) was 90 % of control.

Turning to `[C-]1=CC2C=CC1C1[C-]=CC21.[Cl][Pd][Cl]` (stereo not drawn), the T/C by setting is: (dose: 3.13 mg/kg/injection, schedule: Q01DX009 (ip), vehicle: saline with Tween-80) 103 % of control; (dose: 6.25 mg/kg/injection, schedule: Q01DX009 (ip), vehicle: saline with Tween-80) 98 % of control; (dose: 12.5 mg/kg/injection, schedule: Q01DX009 (ip), vehicle: saline with Tween-80) 100 % of control.

As for `CC(=O)CC(=O)Nc1ccc([N+](=O)[O-])cc1`, the T/C is, setting by setting: (dose: 100.0 mg/kg/injection, schedule: Q01DX009 (ip), vehicle: saline with Tween-80) 97 % of control; under setting [7], 96 % of control; (dose: 200.0 mg/kg/injection, schedule: Q01DX009 (ip), vehicle: saline with Tween-80) 111 % of control; under setting [8], 96 % of control; (dose: 400.0 mg/kg/injection, schedule: Q01DX009 (ip), vehicle: saline with Tween-80) 102 % of control; under setting [9], 92 % of control.

As for `Nc1ccc(NS(=O)(=O)CCl)cc1`, the T/C was 111 % of control (dose: 100.0 mg/kg/injection, schedule: Q04DX002 (ip), vehicle: saline with Tween-80); 116 % of control (dose: 200.0 mg/kg/injection, schedule: Q04DX002 (ip), vehicle: saline with Tween-80); 96 % of control (dose: 400.0 mg/kg/injection, schedule: Q04DX002 (ip), vehicle: saline with Tween-80).

In the case of `CNC(=O)c1cc(NC(=O)Nc2ccc(C3=NCCN3)cc2)cc(NC(=O)Nc2ccc(C3=NCCN3)cc2)c1`, the T/C reads like this: (dose: 15.0 mg/kg/injection, schedule: Q01DX Z (ip), vehicle: saline) 122 % of control; (dose: 60.0 mg/kg/injection, schedule: Q01DX Z (ip), vehicle: saline) 216 % of control; (dose: 60.0 mg/kg/injection, schedule: Q01DX Z (oral), vehicle: saline) 103 % of control; (dose: 120.0 mg/kg/injection, schedule: Q01DX Z (ip), vehicle: saline) 114 % of control; (dose: 120.0 mg/kg/injection, schedule: Q01DX Z (oral), vehicle: saline) 98 % of control; (dose: 240.0 mg/kg/injection, schedule: Q01DX Z (oral), vehicle: saline) 106 % of control. In addition, the T/C (dose: 480.0 mg/kg/injection, schedule: Q01DX Z (oral), vehicle: saline) was 93 % of control.

Regarding `O=S(=O)(Nc1ccccn1)c1ccccc1`, the T/C was 103 % of control under setting [3] and 98 % of control under setting [5].

Take `NNC(=O)CCc1ccccc1Br`: the T/C is, setting by setting: (dose: 100.0 mg/kg/injection, schedule: Q04DX003 (ip), vehicle: saline with Tween-80) 99 % of control; (dose: 200.0 mg/kg/injection, schedule: Q04DX003 (ip), vehicle: saline with Tween-80) 92 % of control.

`O=C1CCCCC1Nc1ccc(Br)cc1` (stereo not drawn): the T/C (dose: 100.0 mg/kg/injection, schedule: Q01DX001 (ip), vehicle: saline) is 98 % of control; the T/C (dose: 200.0 mg/kg/injection, schedule: Q01DX001 (ip), vehicle: saline) is 98 % of control; the T/C (dose: 400.0 mg/kg/injection, schedule: Q01DX001 (ip), vehicle: saline) was 98 % of control.

For `CC(C)(C)C1CCC(NC(=O)C(Cl)Cl)CC1` (stereo not drawn), the T/C was 100 % of control (dose: 25.0 mg/kg/injection, schedule: Q01DX009 (ip), vehicle: Klucel (hydroxypropylcellulose) (HPC)); 97 % of control under setting [10]; 94 % of control under setting [11]; 100 % of control under setting [12]; 96 % of control under setting [1]; 90 % of control and 92 % of control under setting [2].

Consider `ClC12CCC(Cl)(CC1)C2(Cl)Cl`, for which the T/C (dose: 25.0 mg/kg/injection, schedule: Q01DX009 (ip), vehicle: saline) is 95 % of control; the T/C (dose: 50.0 mg/kg/injection, schedule: Q01DX009 (ip), vehicle: saline) was 103 % of control; the T/C (dose: 100.0 mg/kg/injection, schedule: Q01DX009 (ip), vehicle: saline) was 96 % of control; the T/C under setting [7] was 98 % of control; the T/C under setting [8] was 95 % of control; the T/C under setting [9] is 98 % of control.

`CN1CC(C(=O)NCc2ccccc2)CC2c3cccc4[nH]cc(c34)CC21` (stereo not drawn): the T/C by setting is: under setting [10], 96 % of control; under setting [12], 91 % of control; under setting [2], 96 % of control; under setting [4], 89 % of control; under setting [6], 91 % of control.

On to `CC(=O)OCC(C)CC/C(=N\O)C(C)C1/C(=N/O)CC2C=C3CC(OC(C)=O)CCC3(C)CC21C` (stereo not drawn), for which the T/C was 97 % of control under setting [11], 91 % of control under setting [1] and 91 % of control under setting [3].
